The values below come from US5378473A, “Transdermal administration of short or intermediate half-life benzodiazepines” (Cygnus Therapeutic Systems, priority 1993, dated 1995).

The nature of the series: Estimate of skin flux required to deliver therapeutically effective amounts of alprazolam transdermally. The settings on record: practical skin area (less than about 100 cm^2); estimated from published pharmacokinetic data. Here is the method:
Based on the published pharmacokinetic data on alprazolam, applicants estimated that skin flux in the range of at least about 1 μg/cm^2 /hr would be required to deliver therapeutically effective amounts of alprazolam transdermally through a practical skin area (i.e., less than about 100 cm^2). However, when applicants measured the in vitro flux of alprazolam through skin from a propylene glycol solution, they found the flux was several-fold less than the flux required to deliver a therapeutic amount of the drug through such an area of skin. […]

For the molecule `Cc1nnc2n1-c1ccc(Cl)cc1C(c1ccccc1)=NC2` [Alprazolam, 8-chloro-1-methyl-6-phenyl-4H-1,2,4-triazolo(4,3-a)(1,4)benzodiazepine], the “skin flux required to deliver therapeutically effective amounts transdermally” value is on record as “at least 1 μg/cm^2 /hr”.
